How the values were obtained:
Assay in all cases: relative viability (nuclei count vs DMSO), 5 days (fraction); higher = more cells survive
Bicalutamide + Foretinib = compound: CC(O)(CS(=O)(=O)c1ccc(F)cc1)C(=O)Nc1ccc(C#N)c(C(F)(F)F)c1 [Bicalutamide] + COc1cc2c(Oc3ccc(NC(=O)C4(C(=O)Nc5ccc(F)cc5)CC4)cc3F)ccnc2cc1OCCCN1CCOCC1 [Foretinib] (partner 0.25 µM)
Procedure, shortened: (§1)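 Relative viability divides the nuclei count in treated wells by that in vehicle wells. Lung cancer cell lines were seeded in 1536-well plates, dosed by pin tool the next day, and fixed and stained after 5 days in one step with final 0.05% Triton X-100, 1% formaldehyde and 1 ug/ml Hoechst. Dosing was a single drug or a fixed anchor-drug dose plus five library-drug doses (not always all listed) in √10 steps, and values are medians of duplicate plates imaged at 4×.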

[1] = compound: CC(O)(CS(=O)(=O)c1ccc(F)cc1)C(=O)Nc1ccc(C#N)c(C(F)(F)F)c1 [Bicalutamide] + C[C@@H](Oc1cc(-c2cnn(C3CCNCC3)c2)cnc1N)c1c(Cl)ccc(F)c1Cl [Crizotinib] (partner 1 µM)
Procedure, shortened: as §1

[2] = compound: C(C(=O)C(=O)O)Br [Bromopyruvate] + Cc1nc(NC(=O)N2CCC[C@H]2C(N)=O)sc1-c1ccnc(C(C)(C)C(F)(F)F)c1 [Alpelisib] (partner 2 µM)
Procedure, shortened: as §1

[3] = compound: C(C(=O)C(=O)O)Br [Bromopyruvate] + Cc1nc(Nc2ncc(C(=O)Nc3c(C)cccc3Cl)s2)cc(N2CCN(CCO)CC2)n1 [Dasatinib] (partner 0.075 µM)
Procedure, shortened: as §1

Cell Line	relative viability (Bicalutamide + Foretinib; first compound 0.08 µM)	relative viability (Bicalutamide + Foretinib; first compound 0.253 µM)	relative viability (Bicalutamide + Foretinib; first compound 0.8 µM)	relative viability (Bicalutamide + Foretinib; first compound 2.53 µM)	relative viability ([1]; first compound 0.08 µM)	relative viability ([1]; first compound 0.253 µM)	relative viability ([1]; first compound 0.8 µM)	relative viability ([1]; first compound 2.53 µM)	relative viability ([2]; first compound 1 µM)	relative viability ([2]; first compound 3.162 µM)	relative viability ([2]; first compound 10 µM)	relative viability ([2]; first compound 31.62 µM)	relative viability ([2]; first compound 100 µM)	relative viability ([3]; first compound 1 µM)	relative viability ([3]; first compound 3.162 µM)	relative viability ([3]; first compound 10 µM)	relative viability ([3]; first compound 31.62 µM)	relative viability ([3]; first compound 100 µM)
SK-LU-1	0.99	0.785	1.01	0.78	0.936	0.967	1.08	0.854	1.09	1.05	0.939	0.874	0.86	0.171	0.153	0.19	0.171	0.165
SK-MES-1	0.832	0.829	0.979	1.03	1.03	0.902	1.02	1.01	0.842	0.878	0.915	0.868	1.01	0.424	0.332	0.345	0.339	0.417
SW 1573	0.929	0.71	1.08	0.778	0.972	0.761	1.08	0.721	0.761	0.84	0.876	0.678	0.761	0.598	0.684	0.492	0.276	0.0416
